Here are results for ten molecules from ChEMBL document CHEMBL1201862, “PubChem BioAssay data set” (2004).

Some test systems named below: ACHN; CAKI-1; CCRF-CEM; HCT-15; KM12; M14; MCF7; MDA-N; Malme-3M; OVCAR-4; PC-3; RPMI-8226; RXF 393; T47D; UACC-62.
Common to all, as to experiment: DTP human tumour cell line panel, 48 h

What is called GI50 is the concentration that inhibits growth by half.

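How tested: cells in 96-well plates exposed to compound for 48 hours at five concentrations. GI50 = concentration required for 50% inhibition of growth.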 Calls of active or inactive are those of the source. Cut-off read from the data, not from the text of the source: active = GI50 up to about 1.1 µM and inactive = higher.

For `O=C(O)c1nn(-c2ccccc2)nc1-c1nn(-c2ccccc2)nc1C(=O)O`, the GI50 is > 100 µM (inactive) in the experiment on ACHN; > 100 µM (inactive) with CAKI-1; > 100 µM (inactive) in the experiment with CCRF-CEM; above 100 µM with HCT-15; > 100 µM (inactive) in the experiment on KM12; > 100 µM (inactive) in the experiment with M14. The GI50 with MCF7, with MDA-N, in the experiment on Malme-3M, with OVCAR-4, in the experiment with PC-3 and with RPMI-8226 was > 100 µM (inactive) throughout. Further, the GI50 in the experiment with RXF 393, in the experiment with T47D and in the experiment with UACC-62 was > 100 µM (inactive) throughout.
As for `S=C(NCc1ccccn1)N/N=C/c1ccccn1`, the GI50 was < 0.01 µM (active) with ACHN; < 0.01 µM (active) in the experiment on CAKI-1; < 0.01 µM (active) in the experiment with CCRF-CEM; below 0.01 µM in the experiment on HCT-15; < 0.01 µM (active) in the experiment on KM12; < 0.01 µM (active) in the experiment on M14. Moreover, the GI50 in the experiment with MCF7 is < 0.01 µM (active); in the experiment with MDA-N it was 0.454 µM (active); in the experiment with Malme-3M, 0.614 µM (active); in the experiment with OVCAR-4, < 0.0371 µM (active); in the experiment with PC-3, < 0.01 µM (active); with RPMI-8226, < 0.01 µM (active). For the same molecule, the GI50 was < 0.0378 µM (active) with RXF 393, < 0.01 µM (active) in the experiment on T47D and < 0.0181 µM (active) with UACC-62.
Consider `Cn1cc(C(=O)c2nccc3c2cnc2ccccc23)ccc1=O`, for which the GI50 in the experiment with ACHN was 12.2 µM (inactive); in the experiment on CAKI-1 it was 13.2 µM (inactive); in the experiment on CCRF-CEM it was > 100 µM (inactive); in the experiment on HCT-15, above 100 µM; in the experiment with KM12, > 100 µM (inactive); in the experiment on M14 it was > 100 µM (inactive). Moreover, the GI50 was > 100 µM (inactive) in the experiment on MDA-N; > 100 µM (inactive) in the experiment on Malme-3M; > 100 µM (inactive) with OVCAR-4; > 100 µM (inactive) in the experiment with PC-3; > 100 µM (inactive) in the experiment on RPMI-8226; < 0.01 µM (active) in the experiment with RXF 393. The GI50 in the experiment on T47D and in the experiment on UACC-62 was > 100 µM (inactive) each time.
As to `NC(=O)CC(/N=C1\C(=O)OC(C(O)CO)\C1=N/C(CC(N)=O)C(=O)O)C(=O)O` (stereo unspecified), the GI50 is > 100 µM (inactive) in the experiment on ACHN; > 100 µM (inactive) in the experiment with CAKI-1; > 100 µM (inactive) in the experiment with CCRF-CEM; above 100 µM in the experiment on HCT-15; > 100 µM (inactive) with KM12; > 100 µM (inactive) with M14. In addition, the GI50 in the experiment on MCF7, in the experiment with MDA-N, with Malme-3M, in the experiment on OVCAR-4, in the experiment on PC-3 and in the experiment with RPMI-8226 was > 100 µM (inactive) in each case. Moreover, the GI50 in the experiment on RXF 393, with T47D and with UACC-62 was > 100 µM (inactive) throughout.
Take `CC1CN=C(N(C(=O)Nc2ccc(Cl)c(Cl)c2)c2ccccc2)S1` (stereo unspecified): the GI50 is 57.8 µM (inactive) in the experiment on ACHN; 77.6 µM (inactive) in the experiment on CAKI-1; 31.9 µM (inactive) in the experiment on CCRF-CEM; 27 µM in the experiment with HCT-15; 32.1 µM (inactive) in the experiment with KM12; 35.3 µM (inactive) with M14. In addition, the GI50 in the experiment on MCF7 was 28.2 µM (inactive); in the experiment with MDA-N, 36 µM (inactive); with Malme-3M, 76.7 µM (inactive); in the experiment on OVCAR-4, 41.4 µM (inactive); in the experiment on PC-3 it was 37.8 µM (inactive); with RPMI-8226, 64.9 µM (inactive). Moreover, in the experiment with T47D, the GI50 is 20.2 µM (inactive).
`CCSc1ncnc2c(C3OC(CO)C(O)C3O)nsc12` (stereo unspecified): the GI50 in the experiment on CAKI-1 was > 100 µM (inactive); in the experiment with CCRF-CEM, > 100 µM (inactive); in the experiment with HCT-15, above 100 µM; in the experiment on M14, > 100 µM (inactive); with MCF7, > 100 µM (inactive); in the experiment with MDA-N, > 100 µM (inactive). In addition, the GI50 in the experiment on Malme-3M, in the experiment with OVCAR-4, in the experiment on PC-3, in the experiment on RXF 393 and in the experiment with T47D was > 100 µM (inactive) each time.
For `Cc1cc(NC2=NCCO2)c2c(c1C)CCCC2`, the GI50 in the experiment on ACHN was 10.1 µM (inactive); in the experiment on CCRF-CEM, 19 µM (inactive); with HCT-15, 16.7 µM; in the experiment with KM12, 13.2 µM (inactive); with M14 it was 11.1 µM (inactive); in the experiment on MCF7 it was 14.8 µM (inactive). In addition, the GI50 was 11.6 µM (inactive) in the experiment with Malme-3M; 15.7 µM (inactive) in the experiment with OVCAR-4; 12.6 µM (inactive) in the experiment with RPMI-8226; 39.3 µM (inactive) with RXF 393; 13.6 µM (inactive) with T47D; 15.2 µM (inactive) in the experiment with UACC-62.
Take `[N-]=[N+]=NCc1nc(N)c2c3c(sc2n1)CCCC3`: the GI50 with ACHN is 3 µM (inactive); in the experiment with CAKI-1, 1.56 µM (inactive); in the experiment on HCT-15 it was 2.76 µM; in the experiment with KM12, 0.979 µM (active); in the experiment on M14, 3.46 µM (inactive); in the experiment with MCF7 it was 2.19 µM (inactive). The GI50 with MDA-N was 2.51 µM (inactive); in the experiment on Malme-3M, 1.55 µM (inactive); with OVCAR-4, 0.631 µM (active); with PC-3 it was 2.04 µM (inactive); in the experiment on RPMI-8226 it was 2.19 µM (inactive); in the experiment on RXF 393, 5.4 µM (inactive). Moreover, the GI50 is 6.85 µM (inactive) with T47D and 5.06 µM (inactive) in the experiment with UACC-62.
In the case of `COc1cc(/C=C2\CCC(C)C3=C2N=c2s/c(=C/c4ccc(Cl)cc4)c(=O)n2C3c2cc(OC)c(OC)c(OC)c2)cc(OC)c1OC` (stereo unspecified), the GI50 with ACHN is > 100 µM (inactive); in the experiment on CAKI-1 it was > 100 µM (inactive); with CCRF-CEM, > 100 µM (inactive); with HCT-15, above 100 µM; in the experiment with KM12, > 100 µM (inactive); in the experiment with M14, > 100 µM (inactive). Further, the GI50 with MCF7, in the experiment on MDA-N, with OVCAR-4, with PC-3, in the experiment with RPMI-8226 and in the experiment on RXF 393 was > 100 µM (inactive) in each case. Besides, in the experiment with UACC-62, the GI50 was > 100 µM (inactive).
For `CC(C)C1=CC23CCC4C(C)(C(=O)O)CCCC4(C)C2CC1C1C(=O)N(c2ccc(Cc4ccc(N5C(=O)C6C7CC8C9(C)CCCC(C)(C(=O)O)C9CCC8(C=C7C(C)C)C6C5=O)cc4)cc2)C(=O)C13` (stereo unspecified), the GI50 is 5.41 µM (inactive) in the experiment with ACHN; 5.41 µM (inactive) in the experiment on CCRF-CEM; 10.6 µM in the experiment on HCT-15; 5.97 µM (inactive) in the experiment with KM12; 9.44 µM (inactive) in the experiment on M14; 5.13 µM (inactive) in the experiment with MCF7. The GI50 in the experiment on MDA-N is 8.93 µM (inactive); in the experiment with Malme-3M, 16.7 µM (inactive); in the experiment on OVCAR-4, 14.4 µM (inactive); in the experiment with PC-3, 3.78 µM (inactive); in the experiment on RPMI-8226 it was 9.14 µM (inactive); in the experiment on RXF 393, 13 µM (inactive). Besides, the values for the GI50 in the experiment on T47D and in the experiment on UACC-62 were 18.1 µM (inactive) and 11 µM (inactive), respectively.
